Key:
Format in all cases: cell-based, human
[1] = system: CD34+ d9 hemogenic endothelial (HE) cells; assay: T cell potential of CD34+ d9 hemogenic endothelial cells treated with GSK126; details: 3 uM GSK126 vs DMSO-treated cells
Text: (§1) To dissect the importance of PRC2 in definitive hematopoietic potential, the inventors knocked down each component of PRC2 (2 shRNAs per gene) in 5F cells and assessed T cell differentiation. The inventors confirmed efficient knockdown by each shRNA (FIG. 3A). […] To validate this finding, the inventors used an […], GSK126, that has 150-fold higher selectivity for EZH2 over EZH1 (McCabe et al. 2012) (FIGS. 3G, 3I and 3J). […] To test the effect of EZH2 inhibition on T cell potential, the inventors generated definitive hemogenic endothelium (HE) from hPSCs with T lymphoid potential via inhibition of Activin/Nodal signaling at the early stage of mesoderm differentiation (Kennedy et al. 2012).

EZH2 and EZH1 = assay: Total H3K27me3 protein levels in 5F cells treated with GSK126
Experimental: At 3 uM, protein levels of total H3K27me3 begins to decrease relative to DMSO control, indicating effective dose for EZH2 and EZH1 inhibition.
as §1

5F cells = assay: Colony-forming assays of 5F cells treated with GSK126; details: 3 uM GSK126
Experimental: Colony assays. After 14 days of respecification, 5×10^4 cells were plated into 3 ml of complete methylcellulose H3434 (StemCell Technologies) supplemented with 10 ng/ml IL6 (Peprotech), 10 ng/ml FLT3 (R&D), and 50 ng/ml TPO (R&D). The mixture was distributed into two 60 mm dishes and maintained in a humidified chamber for 14 days.
as §1

`CC[C@H](C)n1cc(C)c2c(C(=O)NCc3c(C)cc(C)[nH]c3=O)cc(-c3ccc(N4CCNCC4)nc3)cc21` [GSK126] was tested, and the “CD4+CD8+ T cell population” value [1] was “abrogated”, the “global H3K27me3” value (EZH2 and EZH1; 3 uM GSK126, 5F cells) was “markedly reduced” and the “concentration at which total H3K27me3 begins to decrease relative to DMSO control (effective dose for EZH2 and EZH1 inhibition)” value (EZH2 and EZH1; 5F cells) was 3 µM. The “EZH2 and EZH1 enzymatic activity as monitored by total protein levels of H3K27me3” value (EZH2 and EZH1; increasing concentration of GSK126, 5F cells) was “dose-dependent decrease” and the “toxicity as assessed by colony-forming assays” value (5F cells) was “partial toxicity”.

From patent US12680075B2, “Immune cells derived from induced pluripotent stem cell” (THE CHILDREN'S MEDICAL CENTER CORPORATION, priority 2016, dated 2026)
